Assay results taken from patent US10975355B2, “Controlled induction of human pancreatic progenitors produces functional beta-like cells” (THE REGENTS OF THE UNIVERSITY OF CALIFORNIA, priority 2015, dated 2021).

What was measured:
Type in all cases: cell-based, human
[1] = tested on: MEL1 INS^GFP/W reporter cells (hESC); test: Flow cytometric analysis of pancreatic progenitor/endocrine markers in differentiating hESC spheres; settings: for generation of PDX1+ cells over base media alone: group 1, factor alone days 6-8 (conditions 2 and 3), day 9.5
Experimental: Undifferentiated MEL1 INS^GFP/W reporter cells (Micallef et al, 2012) were maintained on mouse embryo fibroblast feeder layers (Millipore) in hESC media as described (Guo et al, 2013b). Suspension-based differentiations were carried out as follows. Briefly, confluent cultures were dissociated into single cell suspension by incubation with TrypLE (Gibco). Cells were counted and each well of 6-well low-adherence plates were seeded with 5.5×10^6 cells in 5.5 ml hES media supplemented with 10 ng/ml Activin A (R&D systems) and 10 ng/ml HeregulinB1 (Peprotech). Plates were placed on an orbital shaker at 100 rpm to induce sphere formation, as described (Schulz et al, 2012). To induce definitive endoderm differentiation, aggregates were collected 24 hours later in a 50 ml falcon tube, allowed to settle by gravity, washed once with PBS and re-suspended in d1 media (RPMI (Gibco) containing 0.2% FBS, 1:5000 ITS (Gibco), 100 ng/ml Activin A, and 50 ng/ml WNT3a (R&D systems)). Clusters from 3 wells were combined into 2 wells at this point and distributed into fresh low-attachment plates in 5.5 ml d1 media. Media thereafter was changed daily, by removing either 4.5 ml media (at the end of d1) or 5.5 ml media the following days and adding back 5.5 ml fresh media until day 9. After day 9, only 5 ml of media was removed and added daily.
Briefly, spheres were collected and allowed to settle by gravity. Clusters were washed once in PBS and dissociated by gentle pipetting after 12-15 minutes incubation in Accumax (innovative cell technologies). For sorting, cell suspension were filtered and re-suspended in FACS buffer consisting of phosphate-buffered saline (PBS) (UCSF cell culture facility) containing 2 mM EDTA (Ambion) and 1% BSA (Sigma). Dead cells were excluded by DAPI (Sigma) staining. Cell sorting was performed on a FACS Aria II (BD Bioscience). For flow-based analysis, dissociated cells were fixed with 4% paraformaldehyde (Electron Microscopy Science) for 15 minutes at room temperature, followed by two washes in PBS. Samples were either stored at 4 C or immediately stained with directly conjugated antibodies. Data analysis was performed with FlowJo software. Mouse Glucagon and mouse human C-peptide antibodies were conjugated in-house by the UCSF Antibody Core and/or with Antibody Labeling Kits (Molecular Probes) according to manufacturer's instructions. […]
To characterize the type of progenitors present in differentiating cultures at the point of endocrine induction, we performed a detailed time course analysis for the expression of pancreatic markers PDX1, NKX6.1, NEUROG3, GCG and INS (FIG. 7). […] Indeed, the expression of NEUROG3 can be detected as early as day 6, when NKX6.1 protein is absent from all cells (FIGS. 7A and B). […]

[2] = tested on: NEUROG3 and NKX2.2 mRNA transcripts; test: qPCR analysis of NEUROG3 and NKX2.2 transcripts at day 8 of differentiation; settings: day 8, compared to RCN condition / during RCN or R treatment
Experimental: Total RNA was isolated with TRIZOL (Sigma) or micro/mini RNAeasy kit (Qiagen) and reverse transcribed using the iScript cDNA Kit (Bio-Rad) according to manufacturer's instructions. qPCR analysis was performed on an ABI 7900 HT Fast Real-Time PCR System (Applied Biosystems) and CFX Connect Real Time System (Biorad) using standard protocols. Primers were Taqman Probes (Applied Biosystems) and/or as published previously (Liu et al, 2014). P-values were calculated using a two-tailed student's t-test.
To characterize the type of progenitors present in differentiating cultures at the point of endocrine induction, we performed a detailed time course analysis for the expression of pancreatic markers PDX1, NKX6.1, NEUROG3, GCG and INS (FIG. 7). […] Indeed, the expression of NEUROG3 can be detected as early as day 6, when NKX6.1 protein is absent from all cells (FIGS. 7A and B). […] We thus expected that robust generation of PDX1+/NKX6.1+ progenitor cells prior to induction of NEUROG3 would allow efficient generation of beta-like cells in vitro. […] Spheres cultured under each condition were analyzed at day 9.5 by flow cytometry to quantify the expression of PDX1 and NKX6.1, and by conventional immunofluorescence analysis for NKX6.1 and NEUROG3 expression. […]

[3] = tested on: NEUROG3 expression in hESC-derived clusters; test: Immunofluorescence (whole mount / sections) for NEUROG3 protein in differentiated clusters; settings: day 9.5, whole mount staining
Experimental: Spheres were fixed for 15-30 minutes at room temperature with 4% paraformaldehyde, followed by multiple washes in PBS. Whole mount staining was performed in suspension, by first blocking overnight at 4° C. in blocking buffer consisting of CAS-block (Invitrogen) with 0.2% TritonX (Fisher). Primary antibodies were incubated overnight at 4° C. in blocking buffer, followed by washes in PBS containing 0.1% Tween-20 (PBS-T, Sigma) and incubation in appropriate secondary antibodies diluted in PBS-T overnight at 4° C. The next day, clusters were washed in PBS-T followed by PBS and mounted with Vectashield (Vector) on glass slides. For sectioning of clusters, spheres were embedded in 2% Agar (Sigma), followed by dehydration, paraffin embedding, and sectioning. […]
To characterize the type of progenitors present in differentiating cultures at the point of endocrine induction, we performed a detailed time course analysis for the expression of pancreatic markers PDX1, NKX6.1, NEUROG3, GCG and INS (FIG. 7). […] Indeed, the expression of NEUROG3 can be detected as early as day 6, when NKX6.1 protein is absent from all cells (FIGS. 7A and B). […] Spheres cultured under each condition were analyzed at day 9.5 by flow cytometry to quantify the expression of PDX1 and NKX6.1, and by conventional immunofluorescence analysis for NKX6.1 and NEUROG3 expression. […]

Question: For `CC1=C2C[C@H]3[C@@H](CC=C4C[C@@H](O)CC[C@@]43C)[C@@H]2CC[C@]12O[C@@H]1C[C@H](C)CN[C@H]1[C@H]2C` [C, Cyclopamine], which “generation of PDX1+ cells over base media alone” value [1] is on record?
Answer: Its value is “did not result in enhanced generation of PDX1+ cells”.

Question: How did the “NEUROG3 and NKX2.2 mRNA transcripts” value [2] turn out when `O=C1O[C@H]([C@@H](O)CO)C(O)=C1O` [Vitamin C] was run?
Answer: The value was “did not significantly lower”.

Question: Which PDX1 positive progenitors ([1]; group 1, exposure days 6-8, alone or combined (conditions 4, 5, 6), analysed day 9.5) does the source give for `CC1=C(/C=C/C(C)=C/C=C/C(C)=C/C(=O)O)C(C)(C)CCC1` [retinoic acid] here?
Answer: The PDX1 positive progenitors was over 88%.

Question: What about the “PDX1+ pancreatic progenitors generated” value ([1]; retinoic acid alone) of the same molecule?
Answer: The value was “more than 98%”.

B1: N: the BMP inhibitor Noggin (N) (protein, UniProt Q13253 28-232, looked up)
Noggin: QHYLHIRPAPSDNLPLVDLIEHPDPIFDPKEKDLNETLLRSLLGGHYDPGFMATSPPEDRPGGGGGAAGGAEDLAELDQLLRQRPSGAMPSEIKGLEFSEGLAQGKKQRLSKKLRRKLQMWLWSQTFCPVLYAWNDLGSRFWPRYVKVGSCFSKRSCSVPEGMVCKPSKSVHLTVLRWRCQRRGGQRCGWIPIQYPIISECKCSC
Question: For B1, which “generation of PDX1+ cells over base media alone” value [1] is on record?
Answer: Its value is “did not result in enhanced generation of PDX1+ cells”.

Question: What about the “formation of NEUROG3 positive endocrine precursors” value [3] of the same molecule?
Answer: The value was “induced”.
